In this experiment the test system is HBV. Description: Anti-HBV activity in vitro: quantification of extracellular HBV DNA by direct qPCR in HepAD38 cells. Type of experiment: cell-based. Conditions: Hepatitis B virus, tetracycline-free medium, 96 hours at 37°C, reported as EC50 threshold value, read-out: HBV inh EC50. The text has this:
HepAD38 cell line (Ladner et al., Antimicrob Agents Chemother, 1997, 41, 1715-20) was used for HBV inhibition assays. HepAD38 is a subclone, derived from Hepatoblastoma cell line HepG2 (ATCC® Number: HB-8065™), that expresses HBV genome under the transcriptional control of a tetracycline-responsive promoter in a TET-OFF system: addition of tetracycline (TET) or doxycycline suppresses HBV replication, while its removal switches on the process allowing HBV viral particles release in the cell supernatant. HepAD38 cell line is maintained in DMEM/F12, supplemented with 10% of fetal bovine serum, 1% of glutamine, 1% of penicillin/streptomycin, 0.4 mg/ml G418 and 0,3 ug/ml tetracycline. For the HBV inhibition assay, doxycycline-free medium is used in order to allow virion production.
HBV inhibition activity in vitro was performed in 96 multiwell plates. During the initial (primary) screening, compounds were first tested in triplicates at concentrations of 0.02 µM, 0.1 µM, 0.5µM and 1µM. For selected compounds, an 8-point dose-response curve was obtained using 1:2 serial dilutions (starting from 0.01µM, 0.1µM, 0.4µM or 5 µM, depending on the degree of inhibition observed during the primary screening). From the dose-response curves, half maximal effective concentration (EC50) could be calculated (see also below).
In more detail, compounds - typically dissolved in DMSO stock solutions - were diluted to 2x the final desired concentration in 100 µl of the above medium (without doxycycline) and plated in three replicates in the 96-well plates.
Simultaneously, HepAD38 cells - extensively pre-washed in tetracycline-free medium in order to induce HBV production - were suspended at 2^∗10^4 cells in 100 µl of tetracycline-free medium and added to each well of the plate, to yield a final assay volume of 200 µl DMSO - used for stock solutions and compounds dilutions - which was always present in the assays at a final concentration of 0.5%.
Plates were then incubated 96 hours at 37°C and then subjected to cell viability assays and extracellular HBV quantification, in order to evaluate both the cytotoxic potential and the antiviral activity of compounds. Cytotoxicity was assessed by a commercial fluorescence assay that measures the metabolic activity of cells, directly related to cell viability (Cell Titer Blue, Promega). Anti-HBV activity was evaluated by quantification of extracellular HBV DNA with direct qPCR. In particular, supernatant was collected and centrifuged for cell debris clarification, viral DNA was extracted from virions by addition of lysis buffer (1 mM 1,4-dithiothreitol, 0.2% sodium dodecyl sulphate) and incubated at 95°C for 10 min. Samples were then diluted 1:40 and real time PCR amplification was performed with SYBR green assay (Power SYBR™ Green PCR Master Mix-Thermo Fisher Scientific) and specific HBV primer (HBV-DF:5'-[…]-3' (SEQ ID No. 1), HBV-DR:5'-[…]-3' (SEQ ID No.2)).
Antiviral activity data for each compound are reported as EC50 threshold value (see Table 1 legend). Excel and Graphpad Prism programs are typically used for data elaboration and EC50 calculation.
For orientation: Real-time PCR tracks product formation cycle by cycle.

The structures appear in SMILES notation.

The term EC50 denotes the concentration that produces a half-maximal response. Regarding `Cc1cc(NC(=O)c2c3c(cn2C)S(=O)(=O)N[C@H]2CN(C(=O)C(=O)NC4(C)CC4)C[C@H]2CO3)ccc1F` [Example E18, (3aR,10aR)-N-(4-fluoro-3-methylphenyl)-7-methyl-2-(2-((1-methylcyclopropyl)amino)-2-oxoacetyl)-2,3,3a,4,10,10a-hexahydro-1H,7H-dipyrrolo[3,4-b:3',4'-f][1,4,5]oxathiazocine-8-carboxamide 5,5-dioxide], the EC50 is below 500 nM.

With `Cc1cc(NC(=O)c2c3c(cn2C)S(=O)(=O)N[C@H]2CN(C(=O)C(=O)NC4(C(F)(F)F)CC4)C[C@H]2CO3)ccc1F` [Example E19, (3aR,10aR)-N-(4-fluoro-3-methylphenyl)-7-methyl-2-(2-oxo-2-((1-(trifluoromethyl)cyclopropyl)amino)acetyl)-2,3,3a,4,10,10a-hexahydro-1H,7H-dipyrrolo[3,4-b:3',4'-f][1,4,5]oxathiazocine-8-carboxamide 5,5-dioxide], the EC50 is below 500 nM.

On to `Cc1cc(NC(=O)c2c3c(cn2C)S(=O)(=O)N[C@H]2CN(C(=O)C(=O)NCC4CC4)C[C@H]2CO3)ccc1F` [Example E20, (3aR,10aR)-2-(2-((cyclopropylmethyl)amino)-2-oxoacetyl)-N-(4-fluoro-3-methylphenyl)-7-methyl-2,3,3a,4,10,10a-hexahydro-1H,7H-dipyrrolo[3,4-b:3',4'-f][1,4,5]oxathiazocine-8-carboxamide 5,5-dioxide], for which the EC50 is below 500 nM.

In the case of `Cc1cc(NC(=O)c2c3c(cn2C)S(=O)(=O)N[C@H]2CN(C(=O)C(=O)NC(C)C)C[C@H]2CO3)ccc1F` [Example E21, (3aR,10aR)-N-(4-fluoro-3-methylphenyl)-2-(2-(isopropylamino)-2-oxoacetyl)-7-methyl-2,3,3a,4,10,10a-hexahydro-1H,7H-dipyrrolo[3,4-b:3',4'-f][1,4,5]oxathiazocine-8-carboxamide 5,5-dioxide], the EC50 was below 500 nM.

On to `Cc1cc(NC(=O)c2c3c(cn2C)S(=O)(=O)N[C@H]2CN(C(=O)C(=O)NC4CCC4)C[C@H]2CO3)ccc1F` [Example E22, (3aR,10aR)-2-(2-(cyclobutylamino)-2-oxoacetyl)-N-(4-fluoro-3-methylphenyl)-7-methyl-2,3,3a,4,10,10a-hexahydro-1H,7H-dipyrrolo[3,4-b:3',4'-f][1,4,5]oxathiazocine-8-carboxamide 5,5-dioxide], for which the EC50 was below 500 nM.

On to `Cc1cc(NC(=O)c2c3c(cn2C)S(=O)(=O)N[C@H]2CN(C(=O)C(=O)NC4CC4)C[C@H]2CS3)ccc1F` [Example E23, (3aR,10aR)-2-(2-(cyclopropylamino)-2-oxoacetyl)-N-(4-fluoro-3-methylphenyl)-7-methyl-2,3,3a,4,10,10a-hexahydro-1H,7H-dipyrrolo[3,4-c:3',4'-g][1,6,2]dithiazocine-8-carboxamide 5,5-dioxide], for which the EC50 was below 500 nM.

With `Cc1cc(NC(=O)c2c3c(cn2C)S(=O)(=O)N[C@H]2CN(C(=O)C(=O)N[C@H](C)C(F)(F)F)C[C@H]2CS3)ccc1F` [Example E24, (3aR,10aR)-N-(4-fluoro-3-methylphenyl)-7-methyl-2-(2-oxo-2-(((R)-1,1,1-trifluoropropan-2-yl)amino)acetyl)-2,3,3a,4,10,10a-hexahydro-1H,7H-dipyrrolo[3,4-c:3',4'-g][1,6,2] dithiazocine-8-carboxamide 5,5-dioxide], the EC50 is below 500 nM.

As to `Cc1cc(NC(=O)c2c3c(cn2C)S(=O)(=O)N[C@H]2CN(C(=O)C(=O)N4CC(F)(F)C4)C[C@H]2CO3)ccc1F` [Example E29, (3aR,10aR)-2-(2-(3,3-difluoroazetidin-1-yl)-2-oxoacetyl)-N-(4-fluoro-3-methylphenyl)-7-methyl-2,3,3a,4,10,10a-hexahydro-1H,7H-dipyrrolo[3,4-b:3',4'-f][1,4,5]oxathiazocine-8-carboxamide 5,5-dioxide], the EC50 was below 500 nM.

Take `Cc1cc(NC(=O)c2c3c(cn2C)S(=O)(=O)N[C@H]2CN(C(=O)C(=O)NC(C)(C)C(F)(F)F)C[C@H]2CO3)ccc1F` [Example E32, (3aR,10aR)-N-(4-fluoro-3-methylphenyl)-7-methyl-2-(2-oxo-2-((1,1,1-trifluoro-2-methylpropan-2-yl)amino)acetyl)-2,3,3a,4,10,10a-hexahydro-1H,7H-dipyrrolo[3,4-b:3',4'-f][1,4,5]oxathiazocine-8-carboxamide 5,5-dioxide]: the EC50 is below 500 nM.

For the compound `Cc1cc(NC(=O)c2c3c(cn2C)S(=O)(=O)N[C@H]2CN(C(=O)C(=O)NC4(C(F)(F)F)CCC4)C[C@H]2CO3)ccc1F` [Example E33, (3aR,10aR)-N-(4-fluoro-3-methylphenyl)-7-methyl-2-(2-oxo-2-((1-(trifluoromethyl)cyclobutyl)amino)acetyl)-2,3,3a,4,10,10a-hexahydro-1H,7H-dipyrrolo[3,4-b:3',4'-f][1,4,5]oxathiazocine-8-carboxamide 5,5-dioxide], the EC50 was below 500 nM.

On to `Cc1cc(NC(=O)c2c3c(cn2C)S(=O)(=O)N[C@H]2CN(C(=O)C(N)=O)C[C@H]2CS3)ccc1F` [Example E34, (3aR,10aR)-2-(2-amino-2-oxoacetyl)-N-(4-fluoro-3-methylphenyl)-7-methyl-2,3,3a,4,10,10a-hexahydro-1H,7H-dipyrrolo[3,4-c:3',4'-g][1,6,2]dithiazocine-8-carboxamide 5,5-dioxide], for which the half-maximal effective concentration (EC50) is below 500 nM.

As to `CNC(=O)C(=O)N1C[C@H]2CSc3c(cn(C)c3C(=O)Nc3ccc(F)c(C)c3)S(=O)(=O)N[C@H]2C1` [Example E35, (3aR,10aR)-N-(4-fluoro-3-methylphenyl)-7-methyl-2-(2-(methylamino)-2-oxoacetyl)-2,3,3a,4,10,10a-hexahydro-1H,7H-dipyrrolo[3,4-c:3',4'-g][1,6,2]dithiazocine-8-carboxamide 5,5-dioxide], the EC50 is below 500 nM.

With `Cc1cc(NC(=O)c2c3c(cn2C)S(=O)(=O)N[C@H]2CN(C(=O)C(=O)N4CC(F)(F)C4)C[C@H]2CS3)ccc1F` [Example E36, (3aR,10aR)-2-(2-(3,3-difluoroazetidin-1-yl)-2-oxoacetyl)-N-(4-fluoro-3-methylphenyl)-7-methyl-2,3,3a,4,10,10a-hexahydro-1H,7H-dipyrrolo[3,4-c:3',4'-g][1,6,2]dithiazocine-8-carboxamide 5,5-dioxide], the half-maximal effective concentration (EC50) is below 500 nM.

As for `Cc1cc(NC(=O)c2c3c(cn2C)S(=O)(=O)N[C@H]2CN(C(=O)C(=O)N[C@@H](C)C(F)(F)F)C[C@H]2CS3)ccc1F` [Example E37, (3aR,10aR)-N-(4-fluoro-3-methylphenyl)-7-methyl-2-(2-oxo-2-(((S)-1,1,1-trifluoropropan-2-yl)amino)acetyl)-2,3,3a,4,10,10a-hexahydro-1H,7H-dipyrrolo[3,4-c:3',4'-g][1,6,2]dithiazocine-8-carboxamide 5,5-dioxide], the 50% effective concentration (EC50) is below 500 nM.

With `Cc1cc(NC(=O)c2c3c(cn2C)S(=O)(=O)N[C@H]2CN(C(=O)C(=O)NCC(F)(F)F)C[C@H]2CS3)ccc1F` [Example E38, (3aR,10aR)-N-(4-fluoro-3-methylphenyl)-7-methyl-2-(2-oxo-2-((2,2,2-trifluoroethyl)amino)acetyl)-2,3,3a,4,10,10a-hexahydro-1H,7H-dipyrrolo[3,4-c:3',4'-g][1,6,2]dithiazocine-8-carboxamide 5,5-dioxide], the EC50 is below 500 nM.

These data come from EP3741762A1, “OXALAMIDO-SUBSTITUTED TRICYCLIC INHIBITORS OF HEPATITIS B VIRUS” (priority 2019, dated 2020).
